This passage reports MIC results from ChEMBL document CHEMBL1155003, “Halicyclamine A, a marine spongean alkaloid as a lead for anti-tuberculosis agent” (2008).

Holding throughout (format): functional
Holding throughout (settings): 336 h

Experiment [1] concerns Mycobacterium tuberculosis. Put plainly: Antitubercular activity against ethambutol-resistant Mycobacterium tuberculosis H37Rv ATCC 35837 after 14 days.
The subject of experiment [2] is Mycobacterium tuberculosis. Nature of the experiment: Antitubercular activity against isoniazid-resistant Mycobacterium tuberculosis H37Rv ATCC 35822 after 14 days.
The subject of experiment [3] is Mycobacterium tuberculosis. Nature of the experiment: Antitubercular activity against rifampicin-resistant Mycobacterium tuberculosis H37Rv ATCC 35838 after 14 days.
Experiment [4] concerns Mycobacterium tuberculosis. Nature of the experiment: Antitubercular activity against streptomycin-resistant Mycobacterium tuberculosis H37Rv ATCC 35820 after 14 days.

Each structure is given as a SMILES string. Values after ≈ are worked out from the molar mass of the structure shown.

In the case of `C1=C2CCCC/C=C\C=C\CCN3CC[C@@H]4[C@H](CCCCCC/C=C\C=C/CCN(C2)C[C@H]14)C3` [HALICYCLAMINE A], the MIC – broadly, the lowest concentration that inhibits growth of the organism – in experiment [1] was found to be 3.13 µg/mL (≈ 6.76 µM); in experiment [2] it was 3.13 µg/mL (≈ 6.76 µM); in experiment [3] it was 3.13 µg/mL (≈ 6.76 µM); in experiment [4], 6.25 µg/mL (≈ 13.5 µM).
